pKi: −log10 of the molar value.
Tests used:
hSERT [1] = molecular target: T1, hSERT (Homo sapiens, UniProt P31645); experiment: hSERT membrane radioligand binding assay (3H-citalopram), Assay 1; conditions: SERT pKi, hSERT HEK-293 membranes, 1.0 nM 3H-citalopram; values given as lower bounds
hNET [2] = molecular target: T2, hNET (Homo sapiens, UniProt P23975); experiment: hNET neurotransmitter uptake assay (3H-NE), Assay 2; type: cell-based; set-up: expressed in transfected cells; host or cells: HEK-293; conditions: norepinephrine reuptake inhibition, 3H-NE uptake, HEK-293 hNET cells (values without asterisk); read-out: NET pIC50 (converted)
T2 sequence (P23975 whole entry): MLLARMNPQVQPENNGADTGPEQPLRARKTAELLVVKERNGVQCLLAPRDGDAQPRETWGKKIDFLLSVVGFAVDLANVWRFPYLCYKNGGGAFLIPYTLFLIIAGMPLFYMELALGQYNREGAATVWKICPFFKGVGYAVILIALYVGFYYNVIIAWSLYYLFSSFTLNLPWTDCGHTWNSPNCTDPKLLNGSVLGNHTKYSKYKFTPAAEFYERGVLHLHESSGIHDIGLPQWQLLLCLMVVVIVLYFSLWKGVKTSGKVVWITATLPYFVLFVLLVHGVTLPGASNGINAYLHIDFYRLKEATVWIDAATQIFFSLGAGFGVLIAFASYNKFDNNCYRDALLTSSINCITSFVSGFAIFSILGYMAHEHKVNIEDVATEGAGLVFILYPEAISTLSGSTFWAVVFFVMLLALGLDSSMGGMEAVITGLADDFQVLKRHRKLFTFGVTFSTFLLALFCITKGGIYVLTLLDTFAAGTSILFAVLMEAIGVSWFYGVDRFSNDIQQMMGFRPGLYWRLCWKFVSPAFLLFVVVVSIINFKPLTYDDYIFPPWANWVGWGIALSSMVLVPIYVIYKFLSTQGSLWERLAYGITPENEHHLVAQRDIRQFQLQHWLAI
Protocol: (§1) Cells were harvested by centrifugation at 1100 rpm for 5 minutes, washed once by resuspension in PBS, then centrifuged. The supernatant was discarded and the cell pellet resuspended, by gentle trituration, in room temperature Krebs-Ringer bicarbonate buffer containing HEPES (10 mM), CaCl2 (2.2 mM), ascorbic acid (200 μM) and pargyline (200 μM), pH 7.4.
(§2) Test compounds were incubated for 30 minutes at 37° C. with the respective cells, prior to addition of radiolabeled neurotransmitter, ^3H-5-HT (20 nM final concentration), ^3H-NE (50 nM final concentration) or ^3H-DA (100 nM final concentration).

hNET [3] = molecular target: T2, hNET; experiment: hNET membrane radioligand binding assay (3H-nisoxetine), Assay 1
hSERT [4] = molecular target: T1, hSERT; experiment: hSERT neurotransmitter uptake assay (3H-5-HT), Assay 2; type: cell-based; set-up: expressed in transfected cells; host or cells: HEK-293; conditions: serotonin reuptake inhibition, 3H-5-HT uptake, HEK-293 hSERT cells (values without asterisk); read-out: SERT pIC50 (converted)
Protocol: as §1, §2

T1 sequence (P31645 whole entry): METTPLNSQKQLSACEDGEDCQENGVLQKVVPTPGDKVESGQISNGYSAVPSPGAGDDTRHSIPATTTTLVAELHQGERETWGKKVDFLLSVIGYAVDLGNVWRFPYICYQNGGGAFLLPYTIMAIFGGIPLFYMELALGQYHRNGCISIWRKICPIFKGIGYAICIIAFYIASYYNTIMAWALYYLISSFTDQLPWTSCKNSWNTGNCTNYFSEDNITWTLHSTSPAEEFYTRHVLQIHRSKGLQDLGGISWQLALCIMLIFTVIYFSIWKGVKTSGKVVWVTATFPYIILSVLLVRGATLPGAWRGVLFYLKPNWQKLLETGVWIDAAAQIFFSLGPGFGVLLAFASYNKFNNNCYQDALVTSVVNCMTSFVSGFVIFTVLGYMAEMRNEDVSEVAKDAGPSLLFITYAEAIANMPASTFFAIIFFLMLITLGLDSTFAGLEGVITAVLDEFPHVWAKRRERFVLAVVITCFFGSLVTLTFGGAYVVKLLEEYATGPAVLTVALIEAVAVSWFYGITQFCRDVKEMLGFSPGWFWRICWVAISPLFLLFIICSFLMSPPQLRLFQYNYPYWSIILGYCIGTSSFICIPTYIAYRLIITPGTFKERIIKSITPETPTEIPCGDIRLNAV

Row | Compound | pKi (hSERT [1]) | IC50 (hNET [2]) [nM] | pKi (hNET [3]) | IC50 (hSERT [4]) [nM]
1 | CCC[C@H](Oc1ccc(F)cc1)[C@H]1CCNC1 [Example 4-5, (S)-3-[(S)-1-(4-Fluorophenoxy)butyl]pyrrolidine] | ≥ 8.00 | ≤ 10 | ≥ 8.00 | ≤ 100
2 | CCC[C@H](Oc1cc(Cl)cc(Cl)c1)[C@H]1CCNC1 [Example 4-6, (S)-3-[(S)-1-(3,5-Dichlorophenoxy)butyl]pyrrolidine] | ≥ 8.00 | ≤ 10 | ≥ 8.00 | ≤ 10
3 | CCC[C@@H](Oc1cc(Cl)cc(Cl)c1)[C@H]1CCNC1 [Example 4-7, (S)-3-[(R)-1-(3,5-Dichlorophenoxy)butyl]pyrrolidine] | ≥ 8.00 | ≤ 10 | ≥ 8.00 | ≤ 10
4 | CCC[C@H](Oc1ccc(Cl)c(Cl)c1)[C@H]1CCNC1 [Example 4-12, (S)-3-[(S)-1-(3,4-Dichlorophenoxy)butyl]pyrrolidine] | ≥ 8.00 | ≤ 10 | ≥ 8.00 | ≤ 10
5 | CCC[C@@H](Oc1ccc(Cl)c(Cl)c1)[C@H]1CCNC1 [Example 4-13, (S)-3-[(R)-1-(3,4-Dichlorophenoxy)butyl]pyrrolidine] | ≥ 8.00 | ≤ 10 | ≥ 8.00 | ≤ 10
6 | CCC[C@H](Oc1ccc(Cl)c(F)c1)[C@H]1CCNC1 [Example 4-18, (S)-3-[(S)-1-(4-Chloro-3-fluorophenoxy)butyl]pyrrolidine] | ≥ 8.00 | ≤ 10 | ≥ 8.00 | ≤ 10
7 | CCC[C@H](Oc1ccccc1Cl)[C@H]1CCNC1 [Example 4-19, (S)-3-[(S)-1-(2-Chlorophenoxy)butyl]pyrrolidine] | ≥ 8.00 | ≤ 10 | ≥ 8.00 | ≤ 100
8 | CCC[C@@H](Oc1ccccc1Cl)[C@H]1CCNC1 [Example 4-20, (S)-3-[(R)-1-(2-Chlorophenoxy)butyl]pyrrolidine] | ≥ 8.00 | ≤ 10 | ≥ 8.00 | ≤ 100
9 | CCC[C@H](Oc1c(Cl)ccc(Cl)c1Cl)[C@H]1CCNC1 [Example 4-27, (S)-3-[(S)-1-(2,3,6-Trichlorophenoxy)butyl]pyrrolidine] | ≥ 8.00 | ≤ 10 | ≥ 8.00 | ≤ 10
10 | CCC[C@H](Oc1ccc(Cl)cc1Cl)[C@H]1CCNC1 [Example 4-28, (S)-3-[(S)-1-(2,4-Dichlorophenoxy)butyl]pyrrolidine] | ≥ 8.00 | ≤ 10 | ≥ 8.00 | ≤ 10
11 | CCC[C@H](Oc1ccc(F)cc1Cl)[C@H]1CCNC1 [Example 4-32, (S)-3-[(S)-1-(2-Chloro-4-fluorophenoxy)butyl]pyrrolidine] | ≥ 8.00 | ≤ 10 | ≥ 8.00 | ≤ 10
12 | CCC[C@H](Oc1c(Cl)cccc1Cl)[C@H]1CCNC1 [Example 4-33, (S)-3-[(S)-1-(2,6-Dichlorophenoxy)butyl]pyrrolidine] | ≥ 8.00 | ≤ 10 | ≥ 8.00 | ≤ 100
13 | CCC[C@H](Oc1ccc(C)cc1Cl)[C@H]1CCNC1 [Example 4-37, (S)-3-[(S)-1-(2-Chloro-4-methylphenoxy)butyl]pyrrolidine] | ≥ 8.00 | ≤ 10 | ≥ 8.00 | ≤ 10
14 | CCC[C@H](Oc1c(F)ccc(OC)c1Cl)[C@H]1CCNC1 [Example 4-43, (S)-3-[(S)-1-(2-Chloro-6-fluoro-3-methoxyphenoxy)butyl]pyrrolidine] | ≥ 8.00 | ≤ 10 | ≥ 8.00 | ≤ 10
15 | CCC[C@H](Oc1ccc(F)c(F)c1F)[C@H]1CCNC1 [Example 4-50, (S)-3-[(S)-1-(2,3,4-Trifluorophenoxy)butyl]pyrrolidine] | ≥ 8.00 | ≤ 10 | ≥ 8.00 | ≤ 100
16 | CCC[C@H](Oc1cccc(Cl)c1C)[C@H]1CCNC1 [Example 4-54, (S)-3-[(S)-1-(3-Chloro-2-methylphenoxy)butyl]pyrrolidine] | ≥ 8.00 | ≤ 10 | ≥ 8.00 | ≤ 10
17 | CCC[C@@H](Oc1cccc(Cl)c1C)[C@H]1CCNC1 [Example 4-55, (S)-3-[(R)-1-(3-Chloro-2-methylphenoxy)butyl]pyrrolidine] | ≥ 8.00 | ≤ 10 | ≥ 8.00 | ≤ 100
18 | CCC[C@@H](Oc1cccc(Cl)c1C)[C@@H]1CCNC1 [Example 4-57, (R)-3-[(R)-1-(3-Chloro-2-methylphenoxy)butyl]pyrrolidine] | ≥ 8.00 | ≤ 10 | ≥ 8.00 | ≤ 10
19 | CCC[C@H](Oc1ccc(Cl)cc1C)[C@H]1CCNC1 [Example 4-58, (S)-3-[(S)-1-(4-Chloro-2-methylphenoxy)butyl]pyrrolidine] | ≥ 8.00 | ≤ 10 | ≥ 8.00 | ≤ 10
20 | CCC[C@@H](Oc1cccc(C)c1C)[C@@H]1CCNC1 [Example 4-63, (R)-3-[(R)-1-(2,3-Dimethylphenoxy)butyl]pyrrolidine] | ≥ 8.00 | ≤ 10 | ≥ 8.00 | ≤ 10
21 | CC(C)[C@H](Oc1ccc(Cl)cc1)[C@H]1CCNC1 [Example 5, (S)-3-[(S)-1-(4-Chlorophenoxy)-2-methylpropyl]pyrrolidine] | ≥ 8.00 | ≤ 10 | ≥ 8.00 | ≤ 10
22 | CC(C)[C@H](Oc1ccc(Cl)c(F)c1F)[C@H]1CCNC1 [Example 6-10, (S)-3-[(S)-1-(4-Chloro-2,3-difluorophenoxy)-2-methylpropyl]pyrrolidine] | ≥ 8.00 | ≤ 10 | ≥ 8.00 | ≤ 10

The next lines start with the values.

Row | pKi (hSERT [1]) | IC50 (hNET [2]) [nM] | pKi (hNET [3]) | IC50 (hSERT [4]) [nM] | Compound
23 | ≥ 8.00 | ≤ 10 | ≥ 8.00 | ≤ 10 | CCC[C@@H](Oc1cccc(Cl)c1Cl)[C@H]1CCNC1 [Example 4-23, (S)-3-[(R)-1-(2,3-Dichlorophenoxy)butyl]pyrrolidine]
24 | ≥ 8.00 | ≤ 10 | ≥ 8.00 | ≤ 10 | CCC[C@@H](Oc1cccc(Cl)c1Cl)[C@@H]1CCNC1 [Example 4-25, (R)-3-[(R)-1-(2,3-Dichlorophenoxy)butyl]pyrrolidine]
25 | ≥ 8.00 | ≤ 10 | ≥ 8.00 | ≤ 10 | CC(C)[C@H](Oc1ccc(Cl)c(Cl)c1F)[C@H]1CCNC1 [Example 6-7, (S)-3-[(S)-1-(3,4-Dichloro-2-fluorophenoxy)-2-methylpropyl]pyrrolidine]
26 | ≥ 8.00 | ≤ 10 | ≥ 8.00 | ≤ 100 | CC(C)C(Oc1ccccc1Cl)C1CCNC1 (stereo not shown) [Example 6-11, 3-[1-(2-Chlorophenoxy)-2-methylpropyl]pyrrolidine]
27 | ≥ 8.00 | ≤ 10 | ≥ 8.00 | ≤ 10 | CC(C)[C@H](Oc1cccc(Cl)c1Cl)[C@H]1CCNC1 [Example 6-12, (S)-3-[(S)-1-(2,3-Dichlorophenoxy)-2-methylpropyl]pyrrolidine]
28 | ≥ 8.00 | ≤ 10 | ≥ 8.00 | ≤ 10 | CC(C)C(Oc1cccc(Cl)c1Cl)C1CCNC1 (stereo not shown) [Example 6-13, 3-[1-(2,3-Dichlorophenoxy)-2-methylpropyl]pyrrolidine]
29 | ≥ 8.00 | ≤ 10 | ≥ 8.00 | ≤ 10 | CC(C)[C@@H](Oc1cccc(Cl)c1Cl)[C@H]1CCNC1 [Example 6-14, (S)-3-[(R)-1-(2,3-Dichlorophenoxy)-2-methylpropyl]pyrrolidine]
30 | ≥ 8.00 | ≤ 10 | ≥ 8.00 | ≤ 10 | CC(C)[C@@H](Oc1cccc(Cl)c1Cl)[C@@H]1CCNC1 [Example 6-15, (R)-3-[(R)-1-(2,3-Dichlorophenoxy)-2-methylpropyl]pyrrolidine]
31 | ≥ 8.00 | ≤ 10 | ≥ 8.00 | ≤ 10 | CC(C)[C@H](Oc1cccc(F)c1Cl)[C@H]1CCNC1 [Example 6-17, (S)-3-[(S)-1-(2-Chloro-3-fluorophenoxy)-2-methylpropyl]pyrrolidine]
32 | ≥ 8.00 | ≤ 10 | ≥ 8.00 | ≤ 100 | CC(C)C(Oc1cccc(F)c1Cl)C1CCNC1 (stereo not shown) [Example 6-18, 3-[1-(2-Chloro-3-fluorophenoxy)-2-methylpropyl]pyrrolidine]
33 | ≥ 8.00 | ≤ 100 | ≥ 7.00 | ≤ 10 | CC(C)[C@@H](Oc1cccc(F)c1Cl)[C@H]1CCNC1 [Example 6-19, (S)-3-[(R)-1-(2-Chloro-3-fluorophenoxy)-2-methylpropyl]pyrrolidine]
34 | ≥ 8.00 | ≤ 10 | ≥ 8.00 | ≤ 10 | CC(C)[C@H](Oc1ccc(Cl)cc1Cl)[C@H]1CCNC1 [Example 6-21, (S)-3-[(S)-1-(2,4-Dichlorophenoxy)-2-methylpropyl]pyrrolidine]
